Measured values: article PMC7192623, “Regulation of the RNA and DNA nuclease activities required for Pyrococcus furiosus Type III-B CRISPR–Cas immunity” (Nucleic Acids Research, 2020)

Tests used:
Pfu Csx1 [1] = biological target: T1, Pfu Csx1 (Pyrococcus furiosus, UniProt Q8U1S8); test: RNase activation assay, […]'-32P-labelled target RNA, urea-PAGE; format: biochemical; conditions: allosteric activator via CARF domain; synthetic cA4 at 1.85, 18.5 and 185 pM; 20 nM Csx1; 20 mM Tris-HCl pH 7.5, 200 mM NaCl, 70 °C
T1 construct: gene PF1127; full-length, N-terminal 6x-His tag, modified pET24-D, expressed in E. coli BL21-RIPL (DE3)
T1 sequence (Q8U1S8 1-478): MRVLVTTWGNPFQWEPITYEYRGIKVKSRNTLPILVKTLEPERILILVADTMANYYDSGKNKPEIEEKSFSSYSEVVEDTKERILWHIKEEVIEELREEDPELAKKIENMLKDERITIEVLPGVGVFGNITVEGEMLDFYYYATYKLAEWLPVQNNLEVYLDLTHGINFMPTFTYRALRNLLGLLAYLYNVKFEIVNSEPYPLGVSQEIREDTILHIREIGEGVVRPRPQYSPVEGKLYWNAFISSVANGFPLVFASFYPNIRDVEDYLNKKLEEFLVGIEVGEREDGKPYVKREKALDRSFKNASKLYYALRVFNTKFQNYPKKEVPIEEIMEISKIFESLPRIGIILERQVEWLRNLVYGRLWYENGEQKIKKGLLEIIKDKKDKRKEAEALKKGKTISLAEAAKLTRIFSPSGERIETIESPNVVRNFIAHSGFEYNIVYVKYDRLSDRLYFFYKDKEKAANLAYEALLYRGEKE

Pfu Csx1 [2] = biological target: T1, Pfu Csx1; test: cleavage of radiolabelled Cmr-produced native cOA, sequencing gel; format: biochemical; conditions: HEPN active site; labelled compound; native cOA preparation (mainly cA4, also cA3), product presumed A2>p; 70 °C

In the case of `Nc1ncnc2c1ncn2[C@@H]1O[C@@H]2COP(=O)(O)O[C@H]3[C@@H](O)[C@H](n4cnc5c(N)ncnc54)O[C@@H]3COP(=O)(O)O[C@H]3[C@@H](O)[C@H](n4cnc5c(N)ncnc54)O[C@@H]3COP(=O)(O)O[C@H]3[C@@H](O)[C@H](n4cnc5c(N)ncnc54)O[C@@H]3COP(=O)(O)O[C@H]2[C@H]1O` [cA4], the “RNase activation assay, 5'-32P-labelled target RNA, urea-PAGE” value (Pfu Csx1 [1]) is reported as “cA4 but not cA6 stimulated the ribonuclease activity of Csx1” and the “cleavage of radiolabelled Cmr-produced native cOA, sequencing gel” value (Pfu Csx1 [2]) is reported as “also degrades its cognate cyclic-tetra-AMP (cA4) activator to switch off the signaling pathway”.
